# Key:
# Type in all cases: biochemical
# Tek = target: T1, Tek (Homo sapiens, UniProt Q02763); experiment: Recombinant GST-Tek (Tie-2) tyrosine kinase assay (33P into poly(Glu,Tyr)); conditions: Examples 1 to 169
# T1 construct: amino acids 773-1124 of the cytoplasmic kinase domain of human Tek, N-terminally fused to GST; made in house; host or cells: Sf9 insect cells (baculovirus)
# Summary of the method: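 GST-fused human Tek kinase domain (aa 773-1124), baculovirus-expressed, 150 ng per reaction; 10 μg/mL poly(Glu,Tyr) 4:1, 4.0 μM [γ-33P]ATP, 3 mM MnCl2/3 mM MgCl2, pH 7.5, 30 min at ambient temperature. 33P uptake read on PVDF filters; IC50 by linear regression from four concentrations in duplicate.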
# KDR = target: T2, KDR (Homo sapiens, UniProt P35968); experiment: Inhibitory activity against KDR (VEGF-R2), in vitro data of Examples 170 and 207; conditions: 10 μM; Examples 1 to 169; read-out: KDR inhibition at 10 μM
# T2 construct: expressed in transfected cells; host or cells: CHO cells
# T2 sequence (P35968 20-1356): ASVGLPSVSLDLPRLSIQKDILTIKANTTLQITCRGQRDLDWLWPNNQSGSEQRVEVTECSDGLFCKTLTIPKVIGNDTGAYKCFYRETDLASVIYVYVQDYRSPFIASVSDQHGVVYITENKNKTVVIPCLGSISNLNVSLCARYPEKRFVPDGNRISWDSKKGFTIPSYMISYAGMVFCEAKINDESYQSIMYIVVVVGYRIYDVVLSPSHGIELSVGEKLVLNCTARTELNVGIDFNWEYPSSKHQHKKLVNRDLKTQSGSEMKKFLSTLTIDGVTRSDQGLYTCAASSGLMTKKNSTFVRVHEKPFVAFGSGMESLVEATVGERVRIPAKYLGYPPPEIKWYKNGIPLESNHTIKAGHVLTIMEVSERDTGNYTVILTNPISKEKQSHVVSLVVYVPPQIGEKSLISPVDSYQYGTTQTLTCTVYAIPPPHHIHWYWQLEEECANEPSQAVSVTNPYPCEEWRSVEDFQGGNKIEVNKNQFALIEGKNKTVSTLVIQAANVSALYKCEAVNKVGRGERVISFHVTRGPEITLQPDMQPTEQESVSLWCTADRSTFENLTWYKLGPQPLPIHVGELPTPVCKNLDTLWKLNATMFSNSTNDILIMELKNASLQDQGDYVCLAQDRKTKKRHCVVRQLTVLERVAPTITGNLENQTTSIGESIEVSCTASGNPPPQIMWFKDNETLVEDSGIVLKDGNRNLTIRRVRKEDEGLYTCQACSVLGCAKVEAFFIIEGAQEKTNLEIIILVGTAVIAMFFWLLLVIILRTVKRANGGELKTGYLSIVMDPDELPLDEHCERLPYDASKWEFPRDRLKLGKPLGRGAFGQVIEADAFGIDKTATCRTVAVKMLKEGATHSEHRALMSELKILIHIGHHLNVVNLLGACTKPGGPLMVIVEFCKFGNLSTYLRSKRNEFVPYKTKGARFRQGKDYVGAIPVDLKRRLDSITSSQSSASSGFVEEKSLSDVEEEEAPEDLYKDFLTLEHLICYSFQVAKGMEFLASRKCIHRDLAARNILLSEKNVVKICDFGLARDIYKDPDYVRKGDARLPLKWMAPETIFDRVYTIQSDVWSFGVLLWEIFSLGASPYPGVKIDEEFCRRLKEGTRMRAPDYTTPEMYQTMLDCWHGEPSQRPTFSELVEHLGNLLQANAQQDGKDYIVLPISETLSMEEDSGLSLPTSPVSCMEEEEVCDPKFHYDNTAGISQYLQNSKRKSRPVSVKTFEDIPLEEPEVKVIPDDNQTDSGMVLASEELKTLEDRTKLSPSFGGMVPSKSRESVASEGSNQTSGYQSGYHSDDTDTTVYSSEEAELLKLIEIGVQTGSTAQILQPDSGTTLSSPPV
# Summary of the method: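 KDR tyrosine phosphorylation detected by luminescence after overnight 4° C capture of 20 μg lysate protein with PY20:AP antibody. Lysates came from cells given compound for 2 h at 37° C, then final 20 ng/ml VEGF for 5 min; compound-free medium as control.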
# FGFR3 (K650E) = target: T3, FGFR3 (K650E) (Homo sapiens, UniProt P22607, K650E); experiment: Recombinant GST-FGFR-3-K650E tyrosine kinase assay (33P into poly(Glu,Tyr)); conditions: 10 μM; Examples 1 to 169; read-out: FGFR3 (K650E) inhibition at 10 μM
# T3 construct: amino acids 411-806 of the cytoplasmic domain of human FGFR-3, N-terminally fused to GST; made in house; host or cells: Sf9 insect cells (baculovirus)
# T3 sequence (P22607 411-806 K650E): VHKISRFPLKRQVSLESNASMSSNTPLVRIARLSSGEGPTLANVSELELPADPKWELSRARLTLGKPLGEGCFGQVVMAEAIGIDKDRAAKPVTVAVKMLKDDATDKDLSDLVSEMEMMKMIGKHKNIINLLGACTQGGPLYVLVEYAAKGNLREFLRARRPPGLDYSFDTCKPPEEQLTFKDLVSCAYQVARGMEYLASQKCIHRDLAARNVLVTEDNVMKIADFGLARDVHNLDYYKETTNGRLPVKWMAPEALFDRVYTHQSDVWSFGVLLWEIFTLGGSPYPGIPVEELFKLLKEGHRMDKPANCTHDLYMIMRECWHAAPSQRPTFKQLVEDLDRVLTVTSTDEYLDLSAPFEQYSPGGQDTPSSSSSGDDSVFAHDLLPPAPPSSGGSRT
# T1 sequence (Q02763 773-1124): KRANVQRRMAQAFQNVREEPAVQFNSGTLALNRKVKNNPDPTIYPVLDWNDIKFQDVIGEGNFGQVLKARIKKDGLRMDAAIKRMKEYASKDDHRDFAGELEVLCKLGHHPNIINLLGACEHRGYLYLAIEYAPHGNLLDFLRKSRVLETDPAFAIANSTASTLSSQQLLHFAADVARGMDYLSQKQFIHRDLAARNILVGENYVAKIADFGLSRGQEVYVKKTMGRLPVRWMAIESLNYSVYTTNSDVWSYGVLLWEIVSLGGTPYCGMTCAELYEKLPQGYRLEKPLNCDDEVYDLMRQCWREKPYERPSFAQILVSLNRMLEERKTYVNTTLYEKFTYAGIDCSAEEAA
inhibition at 10 µM (Tek) [%],inhibition at 10 µM (KDR) [%],inhibition at 10 µM (FGFR3 (K650E)) [%],SMILES
12 to 100,67 to 100,27 to 100,"COc1cccc(NC(=O)Nc2cc(Nc3cccc(N4CCN(C)CC4)c3)ncn2)c1 [Example 9, 1-(3-Methoxy-phenyl)-3-{6-[3-(4-methyl-piperazin-1-yl)-phenylamino]-py-rimidin-4-yl}-urea]"
12 to 100,67 to 100,27 to 100,"CN(C(=O)Nc1c(Cl)cccc1Cl)c1cc(Nc2ccc(N3CCOCC3)cc2)ncn1 [Example 117, 3-(2,6-Dichloro-phenyl)-1-methyl-1-[6-(4-morpholin-4-yl-phenylamino)-pyrimidin-4-yl]-urea]"
12 to 100,67 to 100,27 to 100,"CN(C(=O)Nc1c(Cl)cccc1Cl)c1cc(Nc2cccc(C#N)c2)ncn1 [Example 114, 1-[6-(3-Cyano-phenylamino)-pyrimidin-4-yl]-3-(2,6-dichloro-phenyl)-1-methyl-urea]"
12 to 100,67 to 100,27 to 100,"CCN(CC)CCCOc1ccc(Nc2cc(NC(=O)Nc3ccccc3Br)ncn2)cc1 [Example 104, 1-(2-Bromo-phenyl)-3-{6-[4-(3-diethylamino-propoxy)-phenylamino]-pyrimidin-4-yl}-urea]"
12 to 100,67 to 100,27 to 100,"Cc1cccc(Cl)c1NC(=O)Nc1cc(Nc2ccc(N3CCN(C)CC3)cc2)ncn1 [Example 6, 1-(2-Chloro-6-methyl-Phenyl)-3-{6-[4-(4-methyl-piperazin-1-yl)-phenyl-amino]-pyrimidin-4-yl}-urea]"
12 to 100,67 to 100,27 to 100,"COc1cc(OC)c(Cl)c(NC(=O)N(C)c2cc(Nc3ccc(OC4CCN(C)CC4)cc3)ncn2)c1Cl [Example 165, 3-(2,6-Dichloro-3,5-dimethoxy-phenyl)-1-methyl-{6-[4-(1-methyl-piperidin-4-yloxy)-phenylamino]-pyrimidin-4-yl}-urea]"
12 to 100,67 to 100,27 to 100,"COc1cccc(NC(=O)Nc2cc(Nc3ccc(N4CCN(C)CC4)cc3)ncn2)c1 [Example 8, 1-(3-Methoxy-phenyl)-3-{6-[4-(4-methyl-piperazin-1-yl)-phenylamino]-py-rimidin-4-yl}-urea]"
12 to 100,67 to 100,27 to 100,"COc1cc(OC)c(Cl)c(NC(=O)Nc2cc(Nc3ccc(CN(C)C)c(C(F)(F)F)c3)ncn2)c1Cl [Example 159, 1-(2,6-Dichloro-3,5-dimethoxy-phenyl)-3-[6-(4-dimethylaminomethyl-3-trifluoromethyl-phenylamino)-pyrimidin-4-yl]-urea]"
12 to 100,67 to 100,27 to 100,"COc1cc(NC(=O)N(CCc2ccccn2)c2cc(Nc3ccccc3)ncn2)c(Cl)c(OC)c1 [Example 58, 3-(2-Chloro-3,5-dimethoxy-phenyl)-1-(6-phenylamino-pyrimidin-4-yl)-1-(2-pyridin-2-yl-ethyl)-urea]"
12 to 100,67 to 100,27 to 100,"O=C(Nc1cc(Nc2cccc(Cl)c2)ncn1)Nc1c(Cl)cccc1Cl [Example 137, 1-[6-(3-Chloro-phenylamino)-pyrimidin-4-yl]-3-(2,6-dichloro-Phenyl)-urea]"
12 to 100,67 to 100,27 to 100,"Cc1cc(C)cc(NC(=O)Nc2cc(Nc3ccc(N4CCN(C)CC4)cc3)ncn2)c1 [Example 22, 1-(3,5-Dimethyl-phenyl)-3-{6-[4-(4-methyl-piperazin-1-yl)-phenyl-amino]-pyrimidin-4-yl}-urea]"
12 to 100,67 to 100,27 to 100,"CN(C(=O)Nc1c(Cl)cccc1Cl)c1cc(Nc2cccc(C(F)(F)F)c2)ncn1 [Example 113, 3-(2,6-Dichloro-phenyl)-1-methyl-1-[6-(3-trifluoromethyl-phenylamino)-pyrimidin-4-yl]-urea]"
12 to 100,67 to 100,27 to 100,"COc1cc(NC(=O)Nc2cc(Nc3ccc(N4CCN(C)CC4)cc3)ncn2)cc(OC)c1OC [Example 14, 1-{6-[4-(4-Methyl-piperazin-1-yl)-phenylamino]-pyrimidin-4-yl}-3-(3,4,5-trimethoxy-phenyl)-urea]"
12 to 100,67 to 100,27 to 100,"CCN(CC)CCCOc1ccc(Nc2cc(NC(=O)Nc3c(Cl)cccc3Cl)ncn2)cc1 [Example 103, 1-(2,6-Dichloro-phenyl)-3-{6-[4-(3-diethylamino-propoxy)-phenylamino]-pyrimidin-4-yl}-urea]"
12 to 100,67 to 100,27 to 100,"COc1cc(NC(=O)Nc2cc(Nc3cccc(Cl)c3)ncn2)cc(OC)c1OC [Example 136, 1-[6-(3-Chloro-phenylamino)-pyrimidin-4-yl]-3-(3,4,5-trimethoxy-phenyl)-urea]"
12 to 100,67 to 100,27 to 100,"COc1cc(OC)c(Cl)c(NC(=O)N(C)c2cc(Nc3cccc(CN(C)CCN(C)C)c3)ncn2)c1Cl [Example 162, 3-(2,6-Dichloro-3,5-dimethoxy-phenyl)-1-[6-(3-{[(2-dimethylamino-ethyl)-methyl-amino]-methyl}-phenylamino)-pyrimidin-4-yl]-1-methyl-urea]"
12 to 100,67 to 100,27 to 100,"COc1cc(OC)c(Cl)c(NC(=O)Nc2cc(Nc3ccc(OCCN4CCN(C)CC4)cc3)ncn2)c1Cl [Example 158, 1-(2,6-Dichloro-3,5-dimethoxy-phenyl)-3-(6-{4-[2-(4-methyl-piperazin-1-yl)-ethoxy]-phenylamino}-pyrimidin-4-yl)-urea]"
12 to 100,67 to 100,27 to 100,"Cc1cccc(C)c1NC(=O)Nc1cc(Nc2cccc(Cl)c2)ncn1 [Example 140, 1-[6-(3-Chloro-phenylamino)-pyrimidin-4-yl]-3-(2,6-dimethyl-phenyl)-urea]"
12 to 100,67 to 100,27 to 100,"CCN(CC)c1ccc(Nc2cc(NC(=O)Nc3c(Cl)cccc3Cl)ncn2)cc1 [Example 107, 1-(2,6-Dichloro-phenyl)-3-[6-(4-diethylamino-phenylamino)-pyrimidin-4-yl]-urea]"
12 to 100,67 to 100,27 to 100,"COc1ccc(NC(=O)Nc2cc(Nc3cccc(N4CCN(C)CC4)c3)ncn2)cc1OC [Example 31, 1-(3,4-Dimethoxy-Phenyl)-3-{6-[3-(4-methyl-piperazin-1-yl)-phenyl-amino]-pyrimidin-4-yl}-urea]"
12 to 100,67 to 100,27 to 100,"O=C(Nc1cccc(Cl)c1)Nc1cc(Nc2cccc(Cl)c2)ncn1 [Example 135, 1-(3-Chloro-phenyl)-3-[6-(3-chloro-phenylamino)-pyrimidin-4-yl]-urea]"
12 to 100,67 to 100,27 to 100,"CCN(C(=O)Nc1c(Cl)c(OC)cc(OC)c1Cl)c1cc(Nc2ccc(C(=O)N3CCN(C)CC3)cc2)ncn1 [Example 64, 3-(2,6-Dichloro-3,5-dimethoxy-phenyl)-1-ethyl-1-{6-[4-(4-methyl-piperazine-1-carbonyl)-phenylamino]-pyrimidin-4-yl}-urea]"
12 to 100,67 to 100,27 to 100,"CCN(CC)c1ccc(Nc2cc(N(C)C(=O)Nc3c(Cl)cccc3Cl)ncn2)cc1 [Example 110, 3-(2,6-Dichloro-phenyl)-1-[6-(4-diethylamino-phenylamino)-pyrimidin-4-yl]-1-methyl-urea]"
12 to 100,67 to 100,27 to 100,"CN(C(=O)Nc1cccc(Cl)c1)c1cc(Nc2ccc(F)cc2)ncn1 [Example 122, 3-(3-Chloro-Phenyl)-1-[6-(4-fluoro-phenylamino)-pyrimidin-4-yl]-1-methyl-urea]"
12 to 100,67 to 100,27 to 100,"COc1ccc(Cl)c(NC(=O)N(C)c2cc(Nc3ccc(CN4CCN(C)CC4)cc3)ncn2)c1Cl [Example 62, 3-(2,6-Dichloro-3-methoxy-phenyl)-1-methyl-1-{6-[4-(4-methyl-piperazin-1-ylmethyl)-phenylamino]-pyrimidin-4-yl}-urea]"
12 to 100,67 to 100,27 to 100,"CCN(CC)CCCOc1ccc(N(C(=O)Nc2ccccc2Cl)c2cc(N)ncn2)cc1 [Example 95, 1-(6-Amino-pyrimidin-4-yl}-3-(2-chloro-phenyl)-1-[4-(3-diethylamino-propoxy)-phenyl]-urea]"
12 to 100,67 to 100,27 to 100,"Cc1cccc(Cl)c1NC(=O)Nc1cc(Nc2cccc(N3CCN(C)CC3)c2)ncn1 [Example 7, 1-(2-Chloro-6-methyl-phenyl)-3-{6-[3-(4-methyl-piperazin-1-yl)-phenyl-amino]-pyrimidin-4-yl}-urea]"
